Measurements taken from ChEMBL document CHEMBL3886234, “Isoform selective phospholipase D inhibitors” (2015).

Target: T1, Phospholipase D1 (Homo sapiens, UniProt Q13393)
T1 sequence (Q13393 whole entry): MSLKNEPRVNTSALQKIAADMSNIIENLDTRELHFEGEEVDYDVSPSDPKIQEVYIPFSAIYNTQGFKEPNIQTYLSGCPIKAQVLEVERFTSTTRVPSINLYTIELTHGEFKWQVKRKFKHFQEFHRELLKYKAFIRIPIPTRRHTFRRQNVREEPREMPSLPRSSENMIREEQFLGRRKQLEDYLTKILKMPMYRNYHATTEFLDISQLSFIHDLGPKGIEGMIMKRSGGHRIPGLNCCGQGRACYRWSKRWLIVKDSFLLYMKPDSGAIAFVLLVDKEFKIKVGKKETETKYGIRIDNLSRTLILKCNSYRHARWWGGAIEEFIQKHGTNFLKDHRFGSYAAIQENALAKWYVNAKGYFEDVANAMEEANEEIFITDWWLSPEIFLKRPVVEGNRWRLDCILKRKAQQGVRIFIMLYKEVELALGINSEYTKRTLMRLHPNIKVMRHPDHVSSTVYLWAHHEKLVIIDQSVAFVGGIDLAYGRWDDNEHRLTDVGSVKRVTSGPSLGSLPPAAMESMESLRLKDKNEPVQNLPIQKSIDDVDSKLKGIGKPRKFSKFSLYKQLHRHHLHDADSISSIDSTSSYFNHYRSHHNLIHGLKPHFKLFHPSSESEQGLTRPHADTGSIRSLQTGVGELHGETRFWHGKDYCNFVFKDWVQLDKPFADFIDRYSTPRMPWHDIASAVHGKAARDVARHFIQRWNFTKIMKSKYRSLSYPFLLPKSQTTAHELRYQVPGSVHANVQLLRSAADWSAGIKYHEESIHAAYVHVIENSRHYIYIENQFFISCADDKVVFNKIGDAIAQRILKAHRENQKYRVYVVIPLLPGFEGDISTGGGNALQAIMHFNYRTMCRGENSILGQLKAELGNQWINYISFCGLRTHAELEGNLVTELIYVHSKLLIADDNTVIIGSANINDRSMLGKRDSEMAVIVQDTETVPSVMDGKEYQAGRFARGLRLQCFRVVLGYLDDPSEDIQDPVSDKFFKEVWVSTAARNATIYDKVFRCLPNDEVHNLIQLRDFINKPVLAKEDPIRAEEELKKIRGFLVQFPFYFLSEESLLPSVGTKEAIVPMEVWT
Experiment: Inhibition Assay: In one aspect, the compound inhibits PLD activity; that is, a compound can inhibit PLD1 activity and/or PLD2 activity. In a further aspect, the compound inhibits PLD1 response in Calu-1 cells. In a further aspect, the compound inhibits PLD2 response in HEK293gfpPLD2 cells. In a further aspect, the compound inhibits in vitro PLD1 response. In a further aspect, the compound …
Format: cell-based

For `C[C@@H](CN1CCC2(CC1)C(=O)NC[C@@H]2c1ccc(F)cc1)NC(=O)c1ccc(F)cc1`, the IC50 was 1.2 µM.
